In the assay the target is T1, human GLP-1 receptor (Homo sapiens, UniProt P43220).
T1 construct: expressed in transfected cells
Kind of assay: GLP-1R cAMP Assay (HitHunter cAMP accumulation in CHO cells stably overexpressing the human GLP-1 receptor). The conditions noted are these: CHO cells overexpressing human GLP-1 receptor, 30 min treatment, 20-point dose response in triplicate. Format: cell-based. On the procedure:
cAMP accumulation was measured in Chinese hamster ovary (CHO) cells stably overexpressing the human GLP-1 receptor using the HitHunter cAMP Assay for Small Molecules Kit (Eurofins). Briefly, cells were grown in Ham's F12 Nutrient Mix with 10% FBS, and lifted with Cell Dissociation Buffer, Enzyme free, PBS based (ThermoFisher). Cells were pelleted, and resuspended in Hank's buffered saline solution with 10 mM HEPES, and 625 μM 3-isobutyl-1-methylxanthine. The anti-cAMP antibody reagent was then added to cells at a 1:2 ratio and 5 μL of mixture was seeded in 384-well small volume white assay plates, at 10,000 cells/well. Cells were then treated with 50 nL compound using an ECHO 550 acoustic dispenser (Labcyte) in a 20-point dose response format in triplicate for 30 min. Cells were then lysed, and detection reagents added according to the manufacturer's protocol. After overnight incubation, luminescence was measured using a Perkin Elmer Envision plate reader. Dose response curves were analyzed using GraphPad Prism 9.0.
Molecular weights are calculated by standard techniques, and mass spectrometry results are reported according to the Examples above.
Background: cAMP levels reflect the balance of adenylyl cyclase and phosphodiesterase activity.

Our source for the EC50 values is US20240262811A1, “BENZIMIDAZOYL GLP-1 RECEPTOR AGONISTS, PHARMACEUTICAL COMPOSITIONS COMPRISING THE SAME, AND METHODS FOR THEIR USE” (Carmot Therapeutics, Inc., priority 2021, published 2024).

Broadly, the EC50 is the concentration at which the effect is half-maximal. Low readings indicate greater potency, high ones weaker potency.

T1 sequence (P43220 24-463): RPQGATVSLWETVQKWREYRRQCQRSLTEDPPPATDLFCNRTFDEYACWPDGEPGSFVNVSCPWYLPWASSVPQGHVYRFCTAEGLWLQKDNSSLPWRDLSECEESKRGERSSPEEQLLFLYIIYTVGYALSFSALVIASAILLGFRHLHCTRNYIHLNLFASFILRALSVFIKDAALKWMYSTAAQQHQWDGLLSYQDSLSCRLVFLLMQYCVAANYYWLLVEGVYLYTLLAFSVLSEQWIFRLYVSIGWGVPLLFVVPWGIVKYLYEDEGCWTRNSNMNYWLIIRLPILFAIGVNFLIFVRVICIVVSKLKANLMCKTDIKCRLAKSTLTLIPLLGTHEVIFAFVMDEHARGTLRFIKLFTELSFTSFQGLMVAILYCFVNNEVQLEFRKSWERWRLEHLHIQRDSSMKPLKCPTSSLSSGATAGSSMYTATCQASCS

As to `O=C(O)c1ccc2nc(CN3CC[C@H](Oc4ccnc(COc5ccc(Cl)cc5F)c4)C3)n(C[C@@H]3CCO3)c2c1` [Compound 289, 2-{[(3S)-3-({2-[(4-chloro-2-fluorophenoxy)methyl]pyridin-4-yl}oxy)pyrrolidin-1-yl]methyl}-1-{[(2S)-oxetan-2-yl]methyl}-1H-1,3-benzodiazole-6-carboxylic acid], the EC50 was less than 50 nM.
